target: T1, human CB1 receptor (Homo sapiens, UniProt P21554); experiment: Cannabinoid Receptor-1 functional assay: inhibition of CP55940-induced [35S]GTPγS binding to membranes of CHO-K1 cells expressing human CB1; format: biochemical; conditions: 3 nM CP55940, hCB1 membranes, [35S]GTPγS SPA; read-out: IC50 value for antagonizing a CB1 receptor agonist
T1 construct: expressed in transfected cells; membranes
Excerpt: Transfection and Cell Culture—The cDNA encoding the human CB1 (Cannabinoid Receptor-1) receptor (GenBank accession number NM_016083) was cloned from a human adipose tissue cDNA library and cloned into the eukaryotic expression vector pcDNA3.1 (Invitrogen).
Chinese Hamster Ovary cells (CHO-K1) stably expressing recombinant human CB1 were generated by transfecting the plasmid containing the coding sequence of the human CB1 receptor in CHO-K1 cells, using lipofectamin, according to the manufacturer instructions. Resistant clones were selected in the presence of 600 μg/ml G418 (Life technology). Stably transfected CHO-K1 cells were maintained in Ham's F-12 culture medium (Invitrogen), supplemented with 10% fetal calf serum (Invitrogen), 100 U/ml penicillin, 100 μg/ml streptomycin (Life Technology), and 600 μg/ml G418.
Cannabinoid Receptor-1 Functional Assay.
Functional activities of the above examples of compounds of the invention were assessed in vitro by measuring their ability to inhibit CP55940-induced [^35S]GTPγS binding to membranes prepared from CHO-K1 cells expressing the human CB1 receptor (described in Transfection and Cell Culture). CP55940 is a well known non-selective CB1 and CB2 receptor agonist (e.g Felder et al., 1995, Molecular Pharmacology, (48) 443-50). Membranes were prepared by a standard procedure. Briefly, cells were harvested using 10 mM EDTA and collected by centrifugation. Pelleted cells were homogenized in ice-cold 20 mM Hepes (pH 7.4),10 mM EDTA and protease inhibitors (Complete protease inhibitor cocktail tablet, Roche) using an Ultra Turrax Homogenizer. The homogenate was centrifuged at 14 000 rpm for 45 min. at 4° C. The resultant pellet was resuspended in the same buffer but with only 0.1 mM EDTA and was again centrifuged at 14 000 rpm for 45 min. at 4° C. The resulting pellet (membranes) was resuspended in 20 mM Hepes (pH 7.4), 0.1 mM EDTA, 2 mM MgCl2 and protease inhibitors and protein concentration was determined by Micro BCA Protein Assay Reagent Kit (Pierce Biotechnology) according to the manufacturer instructions. The [^35S]GYPγS SPA (Scintillation Proximity Assay) binding assay was performed by incubating 5 μg/well hCB1-membranes with 1 nM [^35S]GYPγS (Perkin Elmer—NEG 030H) in the presence of 3 nM of CP55940 and various concentrations of the test compounds at room temperature for 1 hr in 96-well microtiter plates. 0.4 mg/well SPA beads (PVT-WGA; RPNQ0001 Amersham Pharmacia Biotech) were then added and the incubation continued for further 30 min. on an orbital shaker. The assay buffer contained 50 mM HEPES (pH 7.5), 50 mM NaCl, 2.5 mM MgCl2, 0.1% BSA, 1 μM GDP and 100 μg/ml Saponin. Microtiter plates were centrifuged at 1500 rpm for 5 min. and radioactivity was read immediately using a Topcounter (PerkinElmer Life Sciences). Data were analyzed and IC50 values determined by non-linear regression using the Prism software (GraphPad Software, San Diego).

T1 sequence (P21554 whole entry): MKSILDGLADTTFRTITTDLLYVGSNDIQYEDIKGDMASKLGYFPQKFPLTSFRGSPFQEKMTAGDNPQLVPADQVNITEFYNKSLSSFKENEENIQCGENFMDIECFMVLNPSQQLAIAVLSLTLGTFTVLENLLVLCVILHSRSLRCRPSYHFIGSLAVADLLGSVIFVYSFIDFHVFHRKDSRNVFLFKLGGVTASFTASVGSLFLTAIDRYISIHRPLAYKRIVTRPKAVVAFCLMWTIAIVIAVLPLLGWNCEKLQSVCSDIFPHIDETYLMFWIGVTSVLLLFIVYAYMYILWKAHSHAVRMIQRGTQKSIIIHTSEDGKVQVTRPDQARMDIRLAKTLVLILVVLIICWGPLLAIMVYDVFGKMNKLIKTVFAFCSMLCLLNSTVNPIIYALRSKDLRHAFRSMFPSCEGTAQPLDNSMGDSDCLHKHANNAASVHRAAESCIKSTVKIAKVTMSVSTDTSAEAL

IC50 [µM]	SMILES
< 0.3	CC(C)(NC(=O)c1nn(-c2ccccc2Cl)c(-c2ccc(Cl)cc2)c1CC(=O)O)c1ccc(F)cc1 [Compound [1.1], {1-(2-Chloro-phenyl)-5-(4-chloro-phenyl)-3-[1-(4-fluoro-phenyl)-1-methyl-ethylcarbamoyl]-1H-pyrazol-4-yl}-acetic acid]
< 0.3	C[C@@H](NC(=O)c1nn(-c2ccccc2Cl)c(-c2ccc(Cl)cc2)c1OCC(=O)O)c1ccc(C(F)(F)F)cc1 [Compound [1.3], {1-(2-Chloro-phenyl)-5-(4-chloro-phenyl)-3-[(R)-1-(4-trifluoromethyl-phenyl)-ethylcarbamoyl]-1H-pyrazol-4-yloxy}-acetic acid]
< 0.3	C[C@H](c1ccc(C(F)(F)F)cc1)N(C)C(=O)c1nn(-c2ccccc2Cl)c(-c2ccc(Cl)cc2)c1CC(=O)O [Compound [1.7], (1-(2-Chloro-phenyl)-5-(4-chloro-phenyl)-3-{methyl-[(R)-1-(4-trifluoromethyl-phenyl)-ethyl]-carbamoyl}-1H-pyrazol-4-yl)-acetic acid]
< 0.3	CC(C(=O)O)c1c(C(=O)N(C)[C@H](C)c2ccc(C(F)(F)F)cc2)nn(-c2ccccc2Cl)c1-c1ccc(Cl)cc1 (stereo partly drawn) [Compound [1.11], 2-{1-(2-Chloro-phenyl)-5-(4-chloro-phenyl)-3-{methyl-[(R)-1-(4-trifluoromethyl-phenyl)-ethyl]-carbamoyl}-1H-pyrazol-4-yl}-propionic acid]
< 0.3	C[C@H](c1ccc(C(F)(F)F)cc1)N(C)C(=O)c1nn(-c2ccccc2Cl)c(-c2ccc(Cl)cc2)c1C(O)C(=O)O (stereo partly drawn) [Compound [1.12], (1-(2-Chloro-phenyl)-5-(4-chloro-phenyl)-3-{methyl-[(R)-1-(4-trifluoromethyl-phenyl)-ethyl]-carbamoyl}-1H-pyrazol-4-yl)-2-hydroxyacetic acid]
< 0.3	CC(NC(=O)c1nn(-c2ccccc2Cl)c(-c2ccc(Cl)cc2)c1Cc1nnn[nH]1)c1ccc(Br)cc1 (stereo not drawn) [Compound [2.1], 1-(2-Chloro-phenyl)-5-(4-chloro-phenyl)-4-(1H-tetrazol-5-ylmethyl)-1H-pyrazole-3-carboxylic acid [1-(4-bromo-phenyl)-ethyl]-amide]
< 0.3	C[C@@H](NC(=O)c1nn(-c2ccccc2Cl)c(-c2ccc(Cl)cc2)c1OCc1nnn[nH]1)c1ccc(C(F)(F)F)cc1 [Compound [3.1], 1-(2-Chloro-phenyl)-5-(4-chloro-phenyl)-4-(1H-tetrazol-5-ylmethoxy)-1H-pyrazole-3-carboxylic acid [(R)-1-(4-trifluoromethyl-phenyl)-ethyl]-amide]
0.3 to 3	C[C@H](Oc1c(C(=O)N[C@H](C)c2ccc(Br)cc2)nn(-c2ccccc2Cl)c1-c1ccc(Cl)cc1)C(=O)O [[1.2], (S)-2-[3-[(R)-1-(4-Bromo-phenyl)-ethylcarbamoyl]-1-(2-chloro-phenyl)-5-(4-chloro-phenyl)-1H-pyrazol-4-yloxy]-propionic acid]
< 0.3	C[C@@H](Oc1c(C(=O)N[C@H](C)c2ccc(Br)cc2)nn(-c2ccccc2Cl)c1-c1ccc(Cl)cc1)C(=O)O [[1.4], (R)-2-[3-[(R)-1-(4-Bromo-phenyl)-ethylcarbamoyl]-1-(2-chloro-phenyl)-5-(4-chloro-phenyl)-1H-pyrazol-4-yloxy]-propionic acid]
< 0.3	C[C@@H](NC(=O)c1nn(-c2ccccc2Cl)c(-c2ccc(Cl)cc2)c1CC(=O)O)c1ccc(C(F)(F)F)cc1 [[1.5], {1-(2-Chloro-phenyl)-5-(4-chloro-phenyl)-3-[(R)-1-(4-trifluoromethyl-phenyl)-ethylcarbamoyl]-1H-pyrazol-4-yl}-acetic acid]
< 0.3	C[C@@H](NC(=O)c1nn(-c2ccccc2Cl)c(-c2ccc(Cl)cc2)c1CC(=O)O)c1ccc(Br)cc1 [[1.6], [3-[(R)-1-(4-Bromo-phenyl)-ethylcarbamoyl]-1-(2-chloro-phenyl)-5-(4-chloro-phenyl)-1H-pyrazol-4-yl]-acetic acid]
0.3 to 3	CC(c1ccc(S(C)(=O)=O)cc1)N(C)C(=O)c1nn(-c2ccccc2Cl)c(-c2ccc(Cl)cc2)c1CC(=O)O (stereo not drawn) [[1.8], (1-(2-Chloro-phenyl)-5-(4-chloro-phenyl)-3-{methyl-[1-(4-methylsufonyl-phenyl)-ethyl]-carbamoyl}-1H-pyrazol-4-yl)-acetic acid]
< 0.3	C[C@H](c1ccc(OC(F)(F)F)cc1)N(C)C(=O)c1nn(-c2ccccc2Cl)c(-c2ccc(Cl)cc2)c1CC(=O)O [[1.9], (1-(2-Chloro-phenyl)-5-(4-chloro-phenyl)-3-{methyl-[(R)-1-(4-trifluoromethoxy-phenyl)-ethyl]-carbamoyl}-1H-pyrazol-4-yl)-acetic acid]
< 0.3	CC(C)(Cc1ccccc1)NC(=O)c1nn(-c2ccccc2Cl)c(-c2ccc(Cl)cc2)c1Cc1nnn[nH]1 [[2.2], 1-(2-Chloro-phenyl)-5-(4-chloro-phenyl)-4-(1H-tetrazol-5-ylmethyl)-1H-pyrazole-3-carboxylic acid (1,1-dimethyl-2-phenyl-ethyl)-amide]
< 0.3	C[C@@H](NC(=O)c1nn(-c2ccccc2Cl)c(-c2ccc(Cl)cc2)c1Cc1nn[nH]n1)c1ccc(Br)cc1 [[2.3], 1-(2-Chloro-phenyl)-5-(4-chloro-phenyl)-4-(1H-tetrazol-5-ylmethyl)-1H-pyrazole-3-carboxylic acid [(R)-1-(4-bromo-phenyl)-ethyl]-amide]
0.3 to 3	C[C@H](NC(=O)c1nn(-c2ccccc2Cl)c(-c2ccc(Cl)cc2)c1Cc1nnn[nH]1)c1ccc(Br)cc1 [[2.4], 1-(2-Chloro-phenyl)-5-(4-chloro-phenyl)-4-(1H-tetrazol-5-ylmethyl)-1H-pyrazole-3-carboxylic acid [(S)-1-(4-bromo-phenyl)-ethyl]-amide]
< 0.3	CC(C)(Cc1ccc(F)cc1)NC(=O)c1nn(-c2ccccc2Cl)c(-c2ccc(Cl)cc2)c1Cc1nn[nH]n1 [[2.5], 5-(4-Chloro-phenyl)-1-(2-chloro-phenyl)-4-(2H-tetrazol-5-ylmethyl)-1H-pyrazole-3-carboxylic acid [2-(4-fluoro-phenyl)-1,1-dimethyl-ethyl]-amide]
< 0.3	C[C@@H](NC(=O)c1nn(-c2ccccc2Cl)c(-c2ccc(Cl)cc2)c1Cc1nn[nH]n1)c1ccc(C(F)(F)F)cc1 [[2.6], 5-(4-Chloro-phenyl)-1-(2-chloro-phenyl)-4-(2H-tetrazol-5-ylmethyl)-1H-pyrazole-3-carboxylic acid [(R)-1-(4-trifluoromethyl-phenyl)-ethyl]-amide]
0.3 to 3	CC(C)(NC(=O)c1nn(-c2ccccc2Cl)c(-c2ccc(Cl)cc2)c1Cc1nnn[nH]1)c1ccc(F)cc1 [[2.7], 1-(2-Chloro-phenyl)-5-(4-chloro-phenyl)-4-(1H-tetrazol-5-ylmethyl)-1H-pyrazole-3-carboxylic acid [1-(4-fluoro-phenyl)-1-methyl-ethyl]-amide]
< 0.3	C[C@@H](NC(=O)c1nn(-c2ccccc2Cl)c(-c2ccc(Cl)cc2)c1Cc1nnn[nH]1)c1ccc(F)cc1 [[2.8], 1-(2-Chloro-phenyl)-5-(4-chloro-phenyl)-4-(1H-tetrazol-5-ylmethyl)-1H-pyrazole-3-carboxylic acid [(R)-1-(4-fluoro-phenyl)-ethyl]-amide]
< 0.3	C[C@@H](NC(=O)c1nn(-c2ccccc2Cl)c(-c2ccc(Cl)cc2)c1Cc1nnn[nH]1)c1ccc(Cl)cc1 [[2.9], 1-(2-Chloro-phenyl)-5-(4-chloro-phenyl)-4-(1H-tetrazol-5-ylmethyl)-1H-pyrazole-3-carboxylic acid [(R)-1-(4-chloro-phenyl)-ethyl]-amide]

— US8124634B2, “CB1 receptor modulators” (7TM Pharma A/S, priority 2006, dated 2012)
